Here are results for 7 cell lines from the supplement of paper PMC10307832.

Holding throughout (assay): relative viability (nuclei count vs DMSO), 5 days (fraction); higher = more cells survive
Compound in the test “XMD13-2 + Bortezomib”: C1CC1C(=O)NC2=NNC3=C2C=CC(=C3)C4=CC(=CC=C4)C(=O)NC5CC5 [XMD13-2] + CC(C)C[C@H](NC(=O)[C@H](Cc1ccccc1)NC(=O)c1cnccn1)B(O)O [Bortezomib] (partner 0.002 µM)
Summed up:
(§1)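 A single step with final 0.05% Triton X-100, 1% formaldehyde and 1 ug/ml Hoechst fixed the cells and stained nuclei 5 days after treatment. Lung cancer cell lines in 1536-well plates had been treated by pin tool the day after seeding with one drug alone or a fixed anchor-drug dose plus five library-drug doses (not always all listed) in √10 steps, and nuclei were counted on 4× images. Relative viability is the ratio of nuclei in treated wells to nuclei in vehicle wells, taken as the median of duplicate plates.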

Compound in the test “XMD13-2 + Pictilisib”: C1CC1C(=O)NC2=NNC3=C2C=CC(=C3)C4=CC(=CC=C4)C(=O)NC5CC5 [XMD13-2] + CS(=O)(=O)N1CCN(Cc2cc3nc(-c4cccc5[nH]ncc45)nc(N4CCOCC4)c3s2)CC1 [Pictilisib] (partner 1 µM)
In short, it runs like this:
as §1

Compound in the test “XMD13-2 + Pemetrexed”: C1CC1C(=O)NC2=NNC3=C2C=CC(=C3)C4=CC(=CC=C4)C(=O)NC5CC5 [XMD13-2] + Nc1nc2[nH]cc(CCc3ccc(C(=O)N[C@@H](CCC(=O)O)C(=O)O)cc3)c2c(=O)[nH]1 [Pemetrexed] (partner 0.2 µM)
Summed up: as §1

Compound in the test “Dasatinib + Palbociclib”: Cc1nc(Nc2ncc(C(=O)Nc3c(C)cccc3Cl)s2)cc(N2CCN(CCO)CC2)n1 [Dasatinib] + CC(=O)c1c(C)c2cnc(Nc3ccc(N4CCNCC4)cn3)nc2n(C2CCCC2)c1=O [Palbociclib] (partner 0.5 µM)
In short, it runs like this: as §1

Consider NCI-H2405, for which the relative viability with XMD13-2 + Bortezomib (first compound 0.05 µM) was found to be 1.07; with XMD13-2 + Bortezomib (first compound 0.1581 µM) it was 0.964; with XMD13-2 + Bortezomib (first compound 0.5 µM), 0.957; in the test with XMD13-2 + Bortezomib (first compound 1.581 µM), 0.926; with XMD13-2 + Bortezomib (first compound 5 µM) it was 0.991; in the test with XMD13-2 + Pictilisib (first compound 0.05 µM), 0.539. Further, the relative viability with XMD13-2 + Pictilisib (first compound 0.1581 µM) worked out at 0.543; in the test with XMD13-2 + Pictilisib (first compound 0.5 µM), 0.434; in the test with XMD13-2 + Pictilisib (first compound 1.581 µM) it was 0.389; in the test with XMD13-2 + Pictilisib (first compound 5 µM) it was 0.474; with XMD13-2 + Pemetrexed (first compound 0.05 µM) it was 1.18; with XMD13-2 + Pemetrexed (first compound 0.1581 µM), 1.02. Moreover, the relative viability was 1.11 in the test with XMD13-2 + Pemetrexed (first compound 0.5 µM); 1.07 in the test with XMD13-2 + Pemetrexed (first compound 5 µM); 0.498 with Dasatinib + Palbociclib (first compound 0.005 µM); 0.374 with Dasatinib + Palbociclib (first compound 0.01581 µM); 0.3 in the test with Dasatinib + Palbociclib (first compound 0.05 µM); 0.219 in the test with Dasatinib + Palbociclib (first compound 0.1581 µM). Moreover, the relative viability in the test with Dasatinib + Palbociclib (first compound 0.5 µM) turned out to be 0.186.

With NCI-H3122, the relative viability with XMD13-2 + Bortezomib (first compound 0.05 µM) was found to be 1.06; in the test with XMD13-2 + Bortezomib (first compound 0.1581 µM), 1.05; with XMD13-2 + Bortezomib (first compound 0.5 µM) it was 1.02; with XMD13-2 + Bortezomib (first compound 1.581 µM) it was 1.1; in the test with XMD13-2 + Bortezomib (first compound 5 µM), 0.985; with XMD13-2 + Pictilisib (first compound 0.05 µM), 0.655. For the same cell line, the relative viability was found to be 0.598 with XMD13-2 + Pictilisib (first compound 0.1581 µM); 0.585 with XMD13-2 + Pictilisib (first compound 0.5 µM); 0.662 with XMD13-2 + Pictilisib (first compound 1.581 µM); 0.505 with XMD13-2 + Pictilisib (first compound 5 µM); 0.193 with XMD13-2 + Pemetrexed (first compound 0.05 µM); 0.195 with XMD13-2 + Pemetrexed (first compound 0.1581 µM). Also, the relative viability in the test with XMD13-2 + Pemetrexed (first compound 0.5 µM) is 0.199; in the test with XMD13-2 + Pemetrexed (first compound 1.581 µM) it was 0.199; with XMD13-2 + Pemetrexed (first compound 5 µM), 0.195; in the test with Dasatinib + Palbociclib (first compound 0.005 µM) it was 0.201; with Dasatinib + Palbociclib (first compound 0.01581 µM) it was 0.214; with Dasatinib + Palbociclib (first compound 0.05 µM) it was 0.207. The figures for the relative viability with Dasatinib + Palbociclib (first compound 0.1581 µM) and in the test with Dasatinib + Palbociclib (first compound 0.5 µM) were 0.239 and 0.131, respectively.

Regarding PC-3 [JPC-3], the relative viability was found to be 0.807 in the test with XMD13-2 + Bortezomib (first compound 0.05 µM); 0.778 in the test with XMD13-2 + Bortezomib (first compound 0.1581 µM); 0.884 in the test with XMD13-2 + Bortezomib (first compound 0.5 µM); 0.871 in the test with XMD13-2 + Bortezomib (first compound 1.581 µM); 0.867 with XMD13-2 + Bortezomib (first compound 5 µM); 0.746 with XMD13-2 + Pictilisib (first compound 0.05 µM). Also, the relative viability with XMD13-2 + Pictilisib (first compound 0.1581 µM) turned out to be 0.733; in the test with XMD13-2 + Pictilisib (first compound 0.5 µM) it was 0.777; with XMD13-2 + Pictilisib (first compound 1.581 µM) it was 0.747; with XMD13-2 + Pictilisib (first compound 5 µM), 0.724; with XMD13-2 + Pemetrexed (first compound 0.05 µM), 1.23; in the test with XMD13-2 + Pemetrexed (first compound 0.1581 µM), 1.04. Also, the relative viability amounted to 1.14 with XMD13-2 + Pemetrexed (first compound 0.5 µM); 1.12 with XMD13-2 + Pemetrexed (first compound 5 µM); 0.593 in the test with Dasatinib + Palbociclib (first compound 0.005 µM); 0.534 in the test with Dasatinib + Palbociclib (first compound 0.01581 µM); 0.607 in the test with Dasatinib + Palbociclib (first compound 0.05 µM); 0.568 in the test with Dasatinib + Palbociclib (first compound 0.1581 µM). Besides, the relative viability in the test with Dasatinib + Palbociclib (first compound 0.5 µM) stood at 0.465.

In the case of PC-14, the relative viability in the test with XMD13-2 + Bortezomib (first compound 0.05 µM) was 0.903; with XMD13-2 + Bortezomib (first compound 0.1581 µM), 0.888; with XMD13-2 + Bortezomib (first compound 0.5 µM), 0.828; with XMD13-2 + Bortezomib (first compound 1.581 µM), 0.806; with XMD13-2 + Bortezomib (first compound 5 µM), 0.916; with XMD13-2 + Pictilisib (first compound 0.05 µM), 0.995. For the same cell line, the relative viability with XMD13-2 + Pictilisib (first compound 0.1581 µM) turned out to be 0.684; with XMD13-2 + Pictilisib (first compound 0.5 µM), 0.67; with XMD13-2 + Pictilisib (first compound 1.581 µM), 0.608; with XMD13-2 + Pictilisib (first compound 5 µM) it was 0.766; in the test with XMD13-2 + Pemetrexed (first compound 0.05 µM), 0.14; with XMD13-2 + Pemetrexed (first compound 0.1581 µM), 0.131. Further, the relative viability with XMD13-2 + Pemetrexed (first compound 0.5 µM) was 0.118; with XMD13-2 + Pemetrexed (first compound 1.581 µM), 0.148; in the test with XMD13-2 + Pemetrexed (first compound 5 µM) it was 0.13; in the test with Dasatinib + Palbociclib (first compound 0.005 µM), 0.561; with Dasatinib + Palbociclib (first compound 0.01581 µM) it was 0.502; with Dasatinib + Palbociclib (first compound 0.05 µM), 0.427. Also, the values for the relative viability with Dasatinib + Palbociclib (first compound 0.1581 µM) and with Dasatinib + Palbociclib (first compound 0.5 µM) were 0.221 and 0.0393, respectively.

As to RERF-LC-KJ, the relative viability in the test with XMD13-2 + Bortezomib (first compound 0.05 µM) worked out at 1.08; with XMD13-2 + Bortezomib (first compound 0.1581 µM), 1.05; with XMD13-2 + Bortezomib (first compound 0.5 µM) it was 1.2; with XMD13-2 + Bortezomib (first compound 1.581 µM), 0.97; with XMD13-2 + Bortezomib (first compound 5 µM), 1.14; with XMD13-2 + Pictilisib (first compound 0.05 µM), 0.57. Besides, the relative viability with XMD13-2 + Pictilisib (first compound 0.1581 µM) amounted to 0.558; in the test with XMD13-2 + Pictilisib (first compound 0.5 µM), 0.435; in the test with XMD13-2 + Pictilisib (first compound 1.581 µM), 0.571; with XMD13-2 + Pictilisib (first compound 5 µM) it was 0.5; with XMD13-2 + Pemetrexed (first compound 0.05 µM) it was 0.478; with XMD13-2 + Pemetrexed (first compound 0.1581 µM) it was 0.425. Further, the relative viability with XMD13-2 + Pemetrexed (first compound 0.5 µM) was 0.476; with XMD13-2 + Pemetrexed (first compound 1.581 µM) it was 0.385; with XMD13-2 + Pemetrexed (first compound 5 µM), 0.463; in the test with Dasatinib + Palbociclib (first compound 0.005 µM) it was 1.08; with Dasatinib + Palbociclib (first compound 0.01581 µM), 0.994; with Dasatinib + Palbociclib (first compound 0.05 µM), 1.11. In addition, the relative viability came to 0.782 with Dasatinib + Palbociclib (first compound 0.1581 µM) and 0.81 with Dasatinib + Palbociclib (first compound 0.5 µM).

For SK-LU-1, the relative viability with XMD13-2 + Bortezomib (first compound 0.05 µM) worked out at 1.26; in the test with XMD13-2 + Bortezomib (first compound 0.1581 µM), 1.41; with XMD13-2 + Bortezomib (first compound 0.5 µM), 1.1; with XMD13-2 + Bortezomib (first compound 1.581 µM), 0.764; with XMD13-2 + Bortezomib (first compound 5 µM) it was 1.15; with XMD13-2 + Pictilisib (first compound 0.05 µM), 0.604. The relative viability stood at 0.671 in the test with XMD13-2 + Pictilisib (first compound 0.1581 µM); 0.658 in the test with XMD13-2 + Pictilisib (first compound 0.5 µM); 0.563 in the test with XMD13-2 + Pictilisib (first compound 1.581 µM); 0.502 with XMD13-2 + Pictilisib (first compound 5 µM); 0.997 in the test with XMD13-2 + Pemetrexed (first compound 0.05 µM); 0.964 with XMD13-2 + Pemetrexed (first compound 0.1581 µM). The relative viability is 1.01 with XMD13-2 + Pemetrexed (first compound 0.5 µM); 0.977 in the test with XMD13-2 + Pemetrexed (first compound 1.581 µM); 0.948 with XMD13-2 + Pemetrexed (first compound 5 µM); 0.34 with Dasatinib + Palbociclib (first compound 0.005 µM); 0.228 with Dasatinib + Palbociclib (first compound 0.01581 µM); 0.241 with Dasatinib + Palbociclib (first compound 0.05 µM). The relative viability turned out to be 0.207 in the test with Dasatinib + Palbociclib (first compound 0.1581 µM) and 0.189 with Dasatinib + Palbociclib (first compound 0.5 µM).

With SW 1573, the relative viability in the test with XMD13-2 + Bortezomib (first compound 0.05 µM) came to 0.974; in the test with XMD13-2 + Bortezomib (first compound 0.1581 µM) it was 1.03; with XMD13-2 + Bortezomib (first compound 0.5 µM), 1.03; with XMD13-2 + Bortezomib (first compound 1.581 µM) it was 0.977; in the test with XMD13-2 + Bortezomib (first compound 5 µM), 0.947; with XMD13-2 + Pictilisib (first compound 0.05 µM), 0.57. For the same cell line, the relative viability in the test with XMD13-2 + Pictilisib (first compound 0.1581 µM) worked out at 0.525; with XMD13-2 + Pictilisib (first compound 0.5 µM), 0.476; in the test with XMD13-2 + Pictilisib (first compound 1.581 µM), 0.466; with XMD13-2 + Pictilisib (first compound 5 µM), 0.272; in the test with XMD13-2 + Pemetrexed (first compound 0.05 µM), 0.831; with XMD13-2 + Pemetrexed (first compound 0.1581 µM), 0.847. In addition, the relative viability amounted to 0.788 with XMD13-2 + Pemetrexed (first compound 0.5 µM); 0.79 with XMD13-2 + Pemetrexed (first compound 1.581 µM); 0.814 in the test with XMD13-2 + Pemetrexed (first compound 5 µM); 0.36 in the test with Dasatinib + Palbociclib (first compound 0.005 µM); 0.295 in the test with Dasatinib + Palbociclib (first compound 0.05 µM); 0.182 with Dasatinib + Palbociclib (first compound 0.1581 µM). In addition, in the test with Dasatinib + Palbociclib (first compound 0.5 µM), the relative viability turned out to be 0.208.
